Data as given in the NIST ThermoML archive (doi:10.1016/j.jct.2014.12.002).
± gives the expanded uncertainty stated by the source.

Tests used:
[1] = Molar enthalpy of transition or fusion; settings: Crystal; DSC
[2] = Crystal
[3] = molar heat capacity at constant pressure; settings: 100 kPa, Small sample (50 mg) DSC

N#Cc1ccccc1-c1ccc(CBr)cc1 [4'-(bromomethyl)-2-cyanobiphenyl]
Settings | Molar enthalpy of transition or fusion [kcal/mol]
[1] | 7.05 ± 0.155

Settings | molar volume [m3/mol]
[2], 293.15 K, 101.33 kPa, Pycnometric method | 0.000223 ± 1.2e-06

Settings | Normal melting temperature [°C]
[2], DTA | 126.06 ± 0.53

[3]
Settings | molar heat capacity at constant pressure [J/K/mol]
293.15 K, Crystal | 253.23 ± 11
297.15 K, Crystal | 256.2 ± 11
301.15 K, Crystal | 259.07 ± 11
305.15 K, Crystal | 261.5 ± 11
309.15 K, Crystal | 265.03 ± 11
313.15 K, Crystal | 268.1 ± 11
317.15 K, Crystal | 271.41 ± 12
321.15 K, Crystal | 274.74 ± 12
325.15 K, Crystal | 277.96 ± 12
329.15 K, Crystal | 281.51 ± 12
333.15 K, Crystal | 284.37 ± 12
337.15 K, Crystal | 287.74 ± 12
341.15 K, Crystal | 291.32 ± 12
345.15 K, Crystal | 294.58 ± 12
349.15 K, Crystal | 298.15 ± 13
353.15 K, Crystal | 300.62 ± 13
357.15 K, Crystal | 303.82 ± 13
361.15 K, Crystal | 306.86 ± 13
365.15 K, Crystal | 309.09 ± 13
369.15 K, Crystal | 314.38 ± 13
373.15 K, Crystal | 317.58 ± 13
433.15 K, Liquid | 408.2 ± 17
437.15 K, Liquid | 410.68 ± 17
441.15 K, Liquid | 413.2 ± 18
445.15 K, Liquid | 415.66 ± 18
449.15 K, Liquid | 417.96 ± 18
453.15 K, Liquid | 420.63 ± 18
457.15 K, Liquid | 423.5 ± 18
461.15 K, Liquid | 425.47 ± 18
465.15 K, Liquid | 427.72 ± 18
469.15 K, Liquid | 429.91 ± 18
473.15 K, Liquid | 432.48 ± 18
477.15 K, Liquid | 434.9 ± 18
481.15 K, Liquid | 437.62 ± 19
485.15 K, Liquid | 440.31 ± 19
489.15 K, Liquid | 441.88 ± 19
493.15 K, Liquid | 444.14 ± 19
